Experimental data published in ChEMBL document CHEMBL1201862, “PubChem BioAssay data set” (2004).
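Dose response: 5 concentrations. Exposure: 48 h. Format: 96-well plates. Endpoint: linear interpolation; highest concentration if not reached. Here, GI50 denotes the concentration required for 50% inhibition of growth.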 Activity calls are given as the source filed them. Rule as the data show it: active = GI50 up to about 1.1 µM and inactive = higher.

Assays:
Experiment in all cases: NCI anticancer screen, dose series, 48 h
[1] = test system: SF-539
[2] = test system: CCRF-CEM
[3] = test system: K562
[4] = test system: SF-268
[5] = test system: NCI-H23
[6] = test system: OVCAR-3
[7] = test system: SK-MEL-5
[8] = test system: COLO 205
[9] = test system: SN12C
[10] = test system: RXF 393
[11] = test system: NCI-H522
[12] = test system: HOP-62
[13] = test system: UACC-62
[14] = test system: A498
[15] = test system: KM12
[16] = test system: MOLT-4
[17] = test system: ACHN
[18] = test system: UACC-257
[19] = test system: UO-31
[20] = test system: HL-60

Row | Structure (SMILES) | GI50 [1] | GI50 [2] | GI50 [3] | GI50 [4] | GI50 [5] | GI50 [6] | GI50 [7] | GI50 [8] | GI50 [9] | GI50 [10] | GI50 [11] | GI50 [12] | GI50 [13] | GI50 [14] | GI50 [15] | GI50 [16] | GI50 [17] | GI50 [18] | GI50 [19] | GI50 [20]
1 | O[C@@H]1C=C[C@]23CCN(Cc4cc5c(cc42)OCO5)[C@@H]3C1 | > 100 µM (inactive) | 48.9 µM (inactive) | > 100 µM (inactive) | > 100 µM (inactive) | > 100 µM (inactive) | > 100 µM (inactive) | > 100 µM (inactive) | 44.8 µM (inactive) | 32.7 µM (inactive) | 20.8 µM (inactive) | 82.4 µM (inactive) | 92 µM (inactive) | > 100 µM (inactive) | > 100 µM (inactive) | 52.5 µM (inactive) | 61.1 µM (inactive) | 35.2 µM (inactive) | 92 µM (inactive) | 48.2 µM (inactive) | > 100 µM (inactive)
2 | O=C1C=CC2(C=C1)C[C@H](NC(=O)OCc1ccccc1)C(=O)O2 | 22.4 µM (inactive) | 1.08 µM (active) | 3.08 µM (inactive) | 17.2 µM (inactive) | 16.1 µM (inactive) | 15.5 µM (inactive) | 21.9 µM (inactive) | 5.93 µM (inactive) | 18.2 µM (inactive) | 10.2 µM (inactive) | 3.3 µM (inactive) | > 54.2 µM (inactive) | 17.3 µM (inactive) | > 61.7 µM (inactive) | 18.9 µM (inactive) | 1.8 µM (inactive) | 15.8 µM (inactive) | 16.9 µM (inactive) | 20.2 µM (inactive) | 2.04 µM (inactive)
3 | O=C(O)c1ccccc1[Se][Se]c1ccccc1C(=O)O | 23.4 µM (inactive) | 56 µM (inactive) | > 100 µM (inactive) | 40.2 µM (inactive) | 47.5 µM (inactive) | 51.1 µM (inactive) | > 100 µM (inactive) | > 100 µM (inactive) | 53 µM (inactive) | 38.3 µM (inactive) | 37.9 µM (inactive) | 29.7 µM (inactive) | 27.5 µM (inactive) | 95.7 µM (inactive) | 26.8 µM (inactive) | 43.8 µM (inactive) | > 100 µM (inactive) | 49.5 µM (inactive) | 2.73 µM (inactive) | 35.9 µM (inactive)
4 | Cc1cc(=O)n2nc(CSc3nnc(Sc4cc(O)ccc4O)s3)sc2n1 | > 100 µM (inactive) | 22.6 µM (inactive) | 21.5 µM (inactive) | 54.6 µM (inactive) | > 100 µM (inactive) | 34.4 µM (inactive) | 64.1 µM (inactive) | 68.5 µM (inactive) | 58.1 µM (inactive) | 51.6 µM (inactive) | 20.4 µM (inactive) | > 100 µM (inactive) | 50 µM (inactive) | > 100 µM (inactive) | > 100 µM (inactive) | 24.4 µM (inactive) | > 100 µM (inactive) | > 100 µM (inactive) | > 100 µM (inactive) | 26.4 µM (inactive)
5 | COc1cc(NCCC2CCCCN2)c2ncccc2c1 (stereo not given) | > 100 µM (inactive) | 25.1 µM (inactive) | > 44.2 µM (inactive) | > 92.7 µM (inactive) | > 100 µM (inactive) | 4.63 µM (inactive) | 25.1 µM (inactive) | 13.5 µM (inactive) | > 49.4 µM (inactive) | 22.2 µM (inactive) | 55.7 µM (inactive) | > 96.4 µM (inactive) | 24.8 µM (inactive) | 53.2 µM (inactive) | 60.4 µM (inactive) | 7.11 µM (inactive) | > 100 µM (inactive) | 19.4 µM (inactive) | 57.1 µM (inactive) | 3.56 µM (inactive)
6 | O=C1c2ccccc2C(=O)c2c(NCCNCCO)ccc(O)c21 | 2.9 µM (inactive) | 3.15 µM (inactive) | 4.86 µM (inactive) | 2.14 µM (inactive) | 2.59 µM (inactive) | 6.46 µM (inactive) | 3.18 µM (inactive) | 2.26 µM (inactive) | 1.45 µM (inactive) | 2.15 µM (inactive) | 2.59 µM (inactive) | 3.21 µM (inactive) | 3.35 µM (inactive) | 5.53 µM (inactive) | 2.52 µM (inactive) | 1.37 µM (inactive) | 2.73 µM (inactive) | 3.29 µM (inactive) | 1.49 µM (inactive) | 2.61 µM (inactive)
7 | O=C1C=C(c2ccccc2)O/C1=C/C(=O)c1ccc(Cl)cc1 | 17.8 µM (inactive) | 3.35 µM (inactive) | 8.13 µM (inactive) | 23.9 µM (inactive) | > 10 µM (inactive) | 17.5 µM (inactive) | 16.7 µM (inactive) | 16.1 µM (inactive) | 16 µM (inactive) | 18.9 µM (inactive) | 11.1 µM (inactive) | 30.5 µM (inactive) | 14 µM (inactive) | 23.4 µM (inactive) | 20.8 µM (inactive) | 2.85 µM (inactive) | 16.6 µM (inactive) | 20.7 µM (inactive) | 23.3 µM (inactive) | 1.66 µM (inactive)
8 | C=C1CCC(O)C/C1=C/C=C1\CCCC2(C)C1CCC2C(C)CCCC(C)C (stereo not given) | 20.1 µM (inactive) | 24.5 µM (inactive) | 21.2 µM (inactive) | 23 µM (inactive) | 18.5 µM (inactive) | 18.5 µM (inactive) | 19.4 µM (inactive) | 19 µM (inactive) | 16.6 µM (inactive) | 18.5 µM (inactive) | 17.5 µM (inactive) | 19.5 µM (inactive) | 18.8 µM (inactive) | 21.3 µM (inactive) | 20.6 µM (inactive) | 20.2 µM (inactive) | 16 µM (inactive) | 17 µM (inactive) | 14.6 µM (inactive) | 23.2 µM (inactive)
9 | CCCNC(=O)CCC(C)[C@H]1CCC2C3C(C[C@H](OC(C)=O)[C@@]21C)[C@@]1(C)CCC2(C[C@H]1C[C@H]3OC(C)=O)OOC1(CCCCC1)OO2 (stereo not given in full) | 3.66 µM (inactive) | 1.73 µM (inactive) | 4.05 µM (inactive) | 2.02 µM (inactive) | 1.12 µM (inactive) | 1.87 µM (inactive) | 2.46 µM (inactive) | 1.75 µM (inactive) | 3.01 µM (inactive) | 3.24 µM (inactive) | 0.473 µM (active) | 0.261 µM (active) | 2.01 µM (inactive) | 33.7 µM (inactive) | 1.44 µM (inactive) | 1.67 µM (inactive) | 1.24 µM (inactive) | 5.3 µM (inactive) | 0.0893 µM (active) | 1.51 µM (inactive)
10 | O=C1N=C(Nc2ccccc2Cl)SC1C(=O)Nc1ccc([N+](=O)[O-])cc1[N+](=O)[O-] (stereo not given) | > 100 µM (inactive) | > 100 µM (inactive) | > 100 µM (inactive) | > 100 µM (inactive) | > 100 µM (inactive) | > 100 µM (inactive) | > 100 µM (inactive) | > 100 µM (inactive) | > 100 µM (inactive) | > 100 µM (inactive) | > 100 µM (inactive) | > 100 µM (inactive) | > 100 µM (inactive) | > 100 µM (inactive) | > 100 µM (inactive) | > 100 µM (inactive) | > 100 µM (inactive) | > 100 µM (inactive) | 72.4 µM (inactive) | > 100 µM (inactive)
11 | O=C(Nn1c(-c2ccccc2)nc2ccccc2c1=O)c1ccc([N+](=O)[O-])cc1 | > 100 µM (inactive) | > 100 µM (inactive) | > 100 µM (inactive) | > 100 µM (inactive) | > 100 µM (inactive) | > 100 µM (inactive) | 64.1 µM (inactive) | > 100 µM (inactive) | > 100 µM (inactive) | 49.2 µM (inactive) | > 100 µM (inactive) | > 100 µM (inactive) | 45.2 µM (inactive) | 46.7 µM (inactive) | > 100 µM (inactive) | > 100 µM (inactive) | > 100 µM (inactive) | > 100 µM (inactive) | > 100 µM (inactive) | > 100 µM (inactive)
12 | CC(=O)Nc1ccc(S(=O)(=O)Nc2cnc3ccccc3n2)cc1 | > 100 µM (inactive) | > 100 µM (inactive) | > 100 µM (inactive) | > 100 µM (inactive) | > 100 µM (inactive) | > 100 µM (inactive) | > 100 µM (inactive) | > 100 µM (inactive) | > 100 µM (inactive) | > 100 µM (inactive) | > 100 µM (inactive) | > 100 µM (inactive) | > 100 µM (inactive) | > 100 µM (inactive) | > 100 µM (inactive) | > 100 µM (inactive) | > 100 µM (inactive) | > 100 µM (inactive) | > 100 µM (inactive) | > 100 µM (inactive)
13 | CCN(CC)CCNc1ccc2ncn3c4c(OC)ccc(O)c4c(=O)c1c23 | 6.98 µM (inactive) | 4.12 µM (inactive) | 8.13 µM (inactive) | 6.49 µM (inactive) | 21.8 µM (inactive) | 31.2 µM (inactive) | 9.51 µM (inactive) | 5.87 µM (inactive) | 4.82 µM (inactive) | 5.85 µM (inactive) | 1.41 µM (inactive) | 15.4 µM (inactive) | 35.7 µM (inactive) | 10 µM (inactive) | 8.17 µM (inactive) | 0.625 µM (active) | 5.94 µM (inactive) | > 100 µM (inactive) | 33.7 µM (inactive) | 30.8 µM (inactive)
14 | Cn1c2cc(O)cc(O)c2c(=O)c2c([N+](=O)[O-])cccc21 | > 100 µM (inactive) | > 100 µM (inactive) | > 100 µM (inactive) | > 100 µM (inactive) | > 100 µM (inactive) | > 100 µM (inactive) | > 100 µM (inactive) | > 100 µM (inactive) | > 100 µM (inactive) | > 100 µM (inactive) | > 100 µM (inactive) | > 100 µM (inactive) | > 100 µM (inactive) | > 100 µM (inactive) | > 100 µM (inactive) | > 100 µM (inactive) | > 100 µM (inactive) | > 100 µM (inactive) | > 100 µM (inactive) | > 100 µM (inactive)
